One test concerns MDA-MB-468. Put plainly: Inhibitory effect of small molecule toxins on cell proliferation in vitro (CCK8). The format is cell-based. The conditions noted are these: MDA-MB-468, 7500 cells/well, 4 days. The procedure: (§1) First, tumor cells MDA-MB-468 and NCI-H322M were cultured; the small molecule toxins of the present invention, maytansin derivative (DM1, Nanjing Lianning), monomethyl auristatin F (MMAF, Nanjing Lianning) were co-cultured respectively with the tumor cells. Then, CCK8 reagent (Dongren Chemical Technology Co., Ltd.) was added, followed by detection with the microplate reader (manufacturer: Molecular Devices, model: SpectraMax M2) (wavelength: 450 nm). The activity of dehydrogenase in mitochondria was detected, to evaluate the inhibitory effect of small molecule toxins on cell proliferation.
(§2) Test of cell activity in vitro: toxins were diluted (10 concentration gradients) with the corresponding test medium (containing 2% FBS). Tumor cells were trypsinized by a conventional method using trypsin, and cells were collected by tube and resuspended in the corresponding test medium (containing 2% FBS). The diluted toxins were added to a 96-well plate, to which were added the cells. Thereafter, 20 μL of CCK8 reagent was added to each well, and reaction was carried out for 4 hours, followed by detection with the microplate reader (wavelength: 450 nm).

The test system of another test is NCI-H322M. Described as above. In kind it is cell-based. The following applies: 5000 cells/well, 3 days, starting at 20000 nM, 5-fold dilution. On the procedure:
as §1, §2

Where [1] appears, read: Homo sapiens, MDA-MB-468, 96 h, Table 3, starting at 10 nM, 2-fold dilution.
Where [2] appears, read: Table 2, 3-fold dilution starting at 10000 nM (T001: 500 nM).

pEC50: −log10 of the molar value. Square brackets hold non-standard residues; d marks the D form. Peptide text beside a SMILES is read from it. * marks the point of attachment. ξ: configuration not given here. Dolaproine = CO[C@@H]([C@@H]1CCCN1)[C@@H](C)C(=O)O; Dil = CC[C@H](C)[C@H](NC)[C@@H](CC(=O)O)OC; d(β3hF) = N[C@@H](CC(=O)O)Cc1ccccc1; NH(4-aminobenzyl) = Nc1ccc(CN*)cc1; NMe2Val = CC(C)[C@@H](C(=O)*)N(C)C; β3hF = N[C@H](CC(=O)O)Cc1ccccc1; NMeV = CN[C@H](C(=O)O)C(C)C; ξF = NC(Cc1ccccc1)C(=O)O; X1 = CN(Cc1ccc(N)cc1)*

`CC[C@H](C)[C@@H]([C@@H](CC(=O)N1CCC[C@H]1[C@H](OC)[C@@H](C)C(=O)N[C@H](C(=O)NCc1ccc(N)cc1)C(C)C)OC)N(C)C(=O)[C@@H](NC(=O)[C@H](C(C)C)N(C)C)C(C)C` [Example T019] (NMe2Val-V[Dil][Dolaproine]V-{NH(4-aminobenzyl)}): the negative-log EC50 (pEC50) (as a rule, the negative decadic logarithm of the EC50, by convention in mol/L) in the test with MDA-MB-468 (setting [1]) was 8.94.
Still for that read-out and setting: the same measure for `CC[C@H](C)[C@@H]([C@@H](CC(=O)N1CCC[C@H]1[C@H](OC)[C@@H](C)C(=O)NCC(=O)NCc1ccc(N)cc1)OC)N(C)C(=O)[C@@H](NC(=O)[C@H](C(C)C)N(C)C)C(C)C` [Example T015, (S)—N-((3R,4S,5 S)-1-((S)-2-((1R,2R)-3-((2-((4-aminobenzyl)amino)-2-oxoethyl)amino)-1-methoxy-2-methyl-3-oxopropyl)pyrrolidin-1-yl)-3-methoxy-5-methyl-1-oxoheptyl-4-yl)-2-((S)-2-(dimethylamino)-3-methylbutyramido)-N,3-dimethylbutyramide] (NMe2Val-V[Dil][Dolaproine]G-{NH(4-aminobenzyl)}): 8.13.
As for `CC[C@H](C)[C@@H]([C@@H](CC(=O)N1CCC[C@H]1[C@H](OC)[C@@H](C)C(=O)N[C@@H](Cc1ccccc1)C(=O)O)OC)N(C)C(=O)[C@@H](NC(=O)[C@@H](NC)C(C)C)C(C)C` [monomethyl auristatin F (MMAF), monomethyl auristatin F, reference compound] (H-[NMeV]V[Dil][Dolaproine]F-OH), the pEC50 in the test with MDA-MB-468 (setting [2]) is 7.01; in the test with NCI-H322M, 6.93.
For `CC[C@H](C)[C@@H]([C@@H](CC(=O)N1CCC[C@H]1[C@H](OC)[C@@H](C)C(=O)N[C@@H](CC(C)C)C(=O)NCc1ccc(N)cc1)OC)N(C)C(=O)[C@@H](NC(=O)[C@H](C(C)C)N(C)C)C(C)C` [Example T018] (NMe2Val-V[Dil][Dolaproine]L-{NH(4-aminobenzyl)}), in the test on MDA-MB-468 (setting [1]), the negative logarithm of the EC50 (pEC50) was 8.63.
With `CC[C@H](C)[C@@H]([C@@H](CC(=O)N1CCC[C@H]1[C@H](OC)[C@@H](C)C(=O)NC(Cc1ccccc1)C(=O)NCc1ccc(N)cc1)OC)N(C)C(=O)[C@@H](NC(=O)[C@H](C(C)C)N(C)C)C(C)C` (stereo partly drawn) [Example T001, (2S)—N-((3R,4S,5 S)-1-((2S)-2-((1R,2R)-3-((1-((4-aminobenzyl)amino)-1-oxo-3-phenylprop-2-yl)amino)-1-methoxy-2-methyl-3-propionyl)pyrrolidin-1-yl)-3-methoxy-5-methyl-1-heptanoyl-4-yl)-2-((S)-2-(dimethylamino)-3-methylbutyramido)-N,3-dimethylbutyramide] (NMe2Val-V[Dil][Dolaproine][ξF]-{NH(4-aminobenzyl)}), the pEC50 in the test with MDA-MB-468 (Homo sapiens, MDA-MB-468, 96 h, Table 2, 3-fold dilution starting at 10000 nM (T001: 500 nM)) is 9.27; in the test on MDA-MB-468 (setting [1]) it was 8.95; in the test on NCI-H322M (Homo sapiens, 72 h), 8.70.
`CC[C@H](C)[C@@H]([C@@H](CC(=O)N1CCC[C@H]1[C@H](OC)[C@@H](C)C(=O)N[C@@H](C)C(=O)NCc1ccc(N)cc1)OC)N(C)C(=O)[C@@H](NC(=O)[C@H](C(C)C)N(C)C)C(C)C` [Example T016] (NMe2Val-V[Dil][Dolaproine]A-{NH(4-aminobenzyl)}): in the test with MDA-MB-468 (setting [1]), the negative-log EC50 (pEC50) was 8.24.
For `COc1cc2cc(c1Cl)N(C)C(=O)C[C@H](OC(=O)[C@H](C)N(C)C(=O)CCS)[C@]1(C)O[C@H]1[C@H](C)[C@@H]1C[C@@](O)(NC(=O)O1)[C@H](OC)/C=C/C=C(\C)C2` [maytansin derivative (DM1), reference compound], the figures for the pEC50 in the test on MDA-MB-468 (setting [2]) and in the test with NCI-H322M were 8.12 and 7.41, respectively.
As for `CC[C@H](C)[C@@H]([C@@H](CC(=O)N1CCC[C@H]1[C@H](OC)[C@@H](C)C(=O)N[C@H](Cc1ccccc1)C(=O)N(C)Cc1ccc(N)cc1)OC)N(C)C(=O)[C@@H](NC(=O)[C@H](C(C)C)N(C)C)C(C)C` [Example T002, (S)—N-((3R,4 S,5 S)-1-((S)-2-((1R,2R)-3-(((R)-1-((4-aminobenzyl)(methyl)amino)-1-oxo-3-phenylprop-2-yl)amino)-1-methoxy-2-methyl-3-propionyl)pyrrolidin-1-yl)-3-methoxy-5-methyl-1-heptanoyl-4-yl)-2-((S)-2-(dimethylamino)-3-methylbutyramido)-N,3-dimethylbutyramide] (NMe2Val-V[Dil][Dolaproine][dF]-X1), the pEC50 with MDA-MB-468 (setting [1]) is under 8.00.
Still for that read-out and setting: the same measure for `CC[C@H](C)[C@@H]([C@@H](CC(=O)N1CCC[C@H]1[C@H](OC)[C@@H](C)C(=O)N[C@@H](CC(=O)NCc1ccc(N)cc1)Cc1ccccc1)OC)N(C)C(=O)[C@@H](NC(=O)[C@H](C(C)C)N(C)C)C(C)C` [Example T014, (S)—N-((3R,4S,5 S)-1-((S)-2-((1R,2R)-3-(((R)-4-((4-aminobenzyl)amino)-4-oxo-1-phenylbut-2-yl)amino)-1-methoxy-2-methyl-3-oxopropyl)pyrrolidin-1-yl)-3-methoxy-5-methyl-1-oxoheptyl-4-yl)-2-((S)-2-(dimethylamino)-3-methylbutyramido)-N,3-dimethylbutyramide] (NMe2Val-V[Dil][Dolaproine][d(β3hF)]-{NH(4-aminobenzyl)}): 8.91; for `CC[C@H](C)[C@@H]([C@@H](CC(=O)N1CCC[C@H]1[C@H](OC)[C@@H](C)C(=O)N[C@H](Cc1ccccc1)C(=O)NCc1ccc(N)cc1)OC)N(C)C(=O)[C@@H](NC(=O)[C@H](C(C)C)N(C)C)C(C)C` [Example T012] (NMe2Val-V[Dil][Dolaproine][dF]-{NH(4-aminobenzyl)}): 8.79.
On the same count and under the same terms, the same measure for `CC[C@H](C)[C@@H]([C@@H](CC(=O)N1CCC[C@H]1[C@H](OC)[C@@H](C)C(=O)N[C@H](CC(=O)NCc1ccc(N)cc1)Cc1ccccc1)OC)N(C)C(=O)[C@@H](NC(=O)[C@H](C(C)C)N(C)C)C(C)C` [Example T013, (S)—N-((3R,4S,5 S)-1-((S)-2-((1R,2R)-3-(((S)-4-((4-aminobenzyl)amino)-4-oxo-1-phenylbut-2-yl)amino)-1-methoxy-2-methyl-3-oxopropyl)pyrrolidin-1-yl)-3-methoxy-5-methyl-1-oxoheptyl-4-yl)-2-((S)-2-(dimethylamino)-3-methylbutyramido)-N,3-dimethylbutyramide] (NMe2Val-V[Dil][Dolaproine][β3hF]-{NH(4-aminobenzyl)}): 9.38.
For the compound `CC[C@H](C)[C@@H]([C@@H](CC(=O)N1CCC[C@H]1[C@H](OC)[C@@H](C)C(=O)N[C@@H](Cc1ccccc1)C(=O)N(C)Cc1ccc(N)cc1)OC)N(C)C(=O)[C@@H](NC(=O)[C@H](C(C)C)N(C)C)C(C)C` [Example T003, (S)—N-((3R,4S,5 S)-1-((S)-2-((1R,2R)-3-(((S)-1-((4-aminobenzyl)(methyl)amino)-1-oxo-3-phenylprop-2-yl)amino)-1-methoxy-2-methyl-3-propionyl)pyrrolidin-1-yl)-3-methoxy-5-methyl-1-heptanoyl-4-yl)-2-((S)-2-(dimethylamino)-3-methylbutyramido)-N,3-dimethylbutyramide] (NMe2Val-V[Dil][Dolaproine]F-X1), the negative-log EC50 (pEC50) in the test with MDA-MB-468 (setting [1]) is 8.49.
The same measure, in the same setting: the same measure for `CC[C@H](C)[C@@H]([C@@H](CC(=O)N1CCC[C@H]1[C@H](OC)[C@@H](C)C(=O)N[C@@H](Cc1ccccc1)C(=O)NCc1ccc(N)cc1)OC)N(C)C(=O)[C@@H](NC(=O)[C@H](C(C)C)N(C)C)C(C)C` [Example T011] (NMe2Val-V[Dil][Dolaproine]F-{NH(4-aminobenzyl)}): 9.68.

Values taken from patent US11207420B2, “Cytotoxin and conjugate, uses of same and preparation method therefor” (priority 2017, dated 2021).
